We go through 91 molecules from a melting point compilation (Tetko et al.; mined from patent text by program, amines drawn as free bases though some values may be those of a salt).

Residues, ends and D or L forms follow the SMILES beside them. *: point of attachment. Cbz = O=C(OCc1ccccc1)*

`CC1(C)OC(=O)C(Br)(CCn2cccc2C(=O)c2ccccc2)C(=O)O1` displayed a melting point of 89 to 91 °C.
Next, `Cc1oc(-c2ccccc2)nc1CCc1ccc(/C=C/CO)cc1`: 102 to 103 °C; `COc1ccc(C2CN(C)CCC2=NO)cc1` (stereo unspecified): 121 to 122 °C.
With `COC(=O)C(Cc1cc(C)c(Oc2ccc(O)c(Cc3ccc(OC)nc3)c2)c(C)c1)NC(C)=O` (stereo unspecified) the figure was 186 to 188 °C; with `O=C(Oc1ccccc1)c1ccc(O)cc1O`, 135 to 137 °C.
Next, `CCCCCCCCCCCCCC(=O)O[C@H](CCCCCCCCCCC)CC(=O)NC(=O)[C@@H](N)CO`: 126 to 130 °C.
`CN(C)CCC1(CO)c2ccccc2N(C)c2ccccc21` showed a melting point of 150 °C.
With `NC(=O)Cn1c(-c2ccc(Cl)cc2)nc2cccnc21` the figure was 270 to 271 °C.
Next, `Clc1ccc2c(c1)C(n1ccnc1)c1ccccc1CO2` (stereo unspecified): 180 to 182 °C; `COc1ccc(C)cc1NC(=O)Nc1ccc2c(c1)CCN(C(=O)Nc1ccc(OCCO)cc1C(F)(F)F)C2`: 122 to 124 °C.
With `CCOC(=NS(C)(=O)=O)N1Cc2ccccc2-c2ccccc2C1` the figure was 136 to 138 °C; with `Nc1cccc(-n2c(=O)c3c(Cc4ccccc4)n[nH]c3c3cccnc32)c1`, 277 to 279 °C; with `CC(C)c1c(C(=O)Cl)n(-c2ccc(F)cc2)c(=O)c2ccccc12`, 113 to 115 °C.
Consider `O=C(O)C1=CSC2C(=Cc3cn4c(n3)CCCCC4)C(=O)N12` (stereo unspecified), for which the melting point is above 250 °C.
Next, `CC(=O)c1c(CO)[nH]c(-c2ccncc2)c1C`: 163 to 165 °C.
With `COc1ccc(OC)c2cc3c(cc12)C1OC3C2=C1CCC(C(C)=O)C2` (stereo unspecified) the figure was 167 to 168 °C.
Next, `Cn1cc(C2=CCC3(CC2)OCCO3)c2cc(C#N)ccc21`: 65 to 67 °C; `CSc1ccc(-c2c(C#N)cnn2-c2ccc(F)cc2)cc1`: 122 to 123 °C.
For the molecule `Nc1n[nH]c2c(C(F)(F)F)cccc12`, the melting point was 101 to 102 °C.
Molecule `CCSc1nnc(-c2ccccc2)n1Cc1ccc(N)cc1` gave a melting point of 126 to 127 °C.
Consider `CCOC(=O)c1c[nH]c2cnc3c(F)c(Cl)c(F)cc3c2c1=O`, for which the melting point is 328 °C.
With `COc1nc(NC(=O)NS(=O)(=O)c2ccccc2C(=O)OC(C)C)nc(C(F)(F)F)n1` the figure was 182 to 185 °C.
`CCOC(=O)c1c(=O)c2cc(F)c(N3CCN(C)CC3)cc2n2ccccc12` displayed a melting point of 167 to 170 °C.
Next, `CNC(=O)n1cnc(C)c1Br`: 98.4 to 100 °C; `C=CCn1c(N)nc(N2CCc3ccccc3CC2)c(C#N)c1=O`: 181 to 182 °C.
Next, `C=CCOC(=O)c1c(Oc2nc(OC)cc(OC)n2)ccc2[nH]c(C)c(NC(C)=O)c12`: 177 to 180 °C.
`CCOC(=O)c1c[nH]c2nc(N3CCN(C(C)=O)CC3)c(F)cc2c1=O` yielded a melting point of 290 to 295 °C.
Next, `N#Cc1ccc(-n2c(=O)cc(C(F)(F)F)n(N)c2=O)cc1O`: above 230 °C.
With `CC(C)=CCN1CCc2c(sc(N)c2C(=O)c2ccc(Cl)cc2)C1` the figure was 118 to 120 °C.
With `c1ccc(COc2cccc3nc[nH]c23)cc1` the figure was 165 to 167 °C; with `N#Cc1ccc(-c2nc(CO)no2)cc1`, 138 to 140 °C; with `CC(C)(C)NC(=O)[C@@H]1C[C@H](Br)CN1C(=O)OC(C)(C)C`, 159 to 160 °C.
`CSc1nc2ccccc2n1C1CCN(CCCC(=O)c2ccc(F)cc2)CC1` registered a melting point of 98 to 98.5 °C.
Next, `COc1c([N+](=O)[O-])c([N+](=O)[O-])c(OC)c2[nH]c(C(F)(F)F)nc12`: 208 to 210 °C; `Cc1nc2c3c(c(C(=O)NCCO)cc2n1C)CCC1(Cc2ccccc2C1)N3`: 167 to 168 °C.
With `O=[N+]([O-])c1ccc(NCCCn2ccnc2)c(F)c1` the figure was 144 °C.
Next, `Cc1ccc(O)c(C)c1[N+](=O)[O-]`: 99 to 101 °C; `CCc1ccc(CCOc2ccc(C=C3SC(=O)NC3=O)cc2)nc1`: 166 to 167 °C; `COc1ccc2c(c1)c(Cc1nc(-c3cccc(Br)c3)cs1)c(C)n2C(=O)c1ccc(Cl)cc1`: 208 to 212 °C.
`C1=Cc2cc(/C=C/c3ccc4c(c3)C=C4)ccc21` returned a melting point of 132 °C.
Next, `Cc1c(NC(=O)Nc2ccc(-n3nc(C(F)(F)F)cc3C(F)(F)F)cc2)cccc1[N+](=O)[O-]`: 235 to 236 °C.
`CC(=O)OC1CSC(Oc2cccc(-c3cnoc3C)c2)C(OC(C)=O)C1OC(C)=O` (stereo unspecified) gave a melting point of 60 °C.
With `COc1nc(Nc2ccc(Cl)cc2[N+](=O)[O-])nc(OC)n1` the figure was 206 to 208 °C; with `CCCC(CCC)(CCC(N)=S)C(CCC)(CCC)C(N)=S`, 87 to 88 °C.
Next, `C#Cc1ccc2cc(OC)ccc2c1`: 111 to 112 °C; `Cn1cc(C(=O)Nc2ccccc2-c2cc(F)ccc2F)c(C(F)(F)F)n1`: 110 to 112 °C; `O=C(O)Cc1ccccc1Oc1ccccc1`: 82 to 85 °C.
Next, `Cc1nnc2n1-c1ccc(C#CCn3ncc4ccccc43)cc1C(c1ccccc1F)=NC2`: 148 to 151 °C.
Molecule `Cc1c(C)c2c(c(C)c1N)CC(C)(CN1CC=C(c3c[nH]c4ccccc34)CC1)O2` (stereo unspecified) gave a melting point of 169 to 173 °C.
Next, `CCNC(=O)C1CCCN1C(=O)C(C)NC(=O)C(C)NC(=O)OCc1ccccc1` (stereo not drawn) (Cbz-Ala-Ala-Pro-NHEt; configuration not given here): 139 to 140 °C; `CC(=O)Nc1ccccc1CS(=O)c1nccn1-c1ccncc1` (stereo unspecified): 147 to 149 °C.
Next, `CC(CCC(=O)NCCCCCC(=O)NCCCCCO)C1CCC2C3C(O)CC4CC(O[Si](C)(C)C(C)(C)C)CCC4(C)C3CC(O)C12C` (stereo unspecified): 146 to 148 °C.
Next, `COc1ccc2[nH]cc(CCN=c3sc4ccccc4s3)c2c1`: 139 to 140 °C; `CNC(=O)c1ccccc1Nc1nc(Nc2ccc3c(c2)CCN(C(C)C)CC3)ncc1Cl`: 140 to 158 °C.
`Nc1nc(-c2ccc(-c3ccccc3)cc2)cn1N`: the melting point is above 280 °C.
For the molecule `CC1=C(Cc2ccc(C(C)C)cc2)C(=O)C2C=CC=CC2C1=O` (stereo unspecified), the melting point was 64 to 65 °C.
Next, `Clc1ccc(-c2coc(CCCI)n2)cc1`: 49 to 50 °C; `c1cc(C2OCCO2)ccc1C1OCCO1`: 86 to 89 °C; `COc1cc(O)ccc1/C=C/C(=O)CC(=O)CCc1ccc(O)cc1`: 131 to 135 °C.
Next, `CC(=O)Nc1ccc(F)cc1OCc1ccccc1`: 136 to 138 °C; `O=C(O)CCC1CCN(C(=O)OCc2ccc([N+](=O)[O-])cc2)CC1`: 98 to 99 °C; `Nc1cccc(-c2ccc(OCC3CNC3)c3ccccc23)n1`: 88 to 110 °C.
In turn, `Cn1cc(-c2ccc(C(F)(F)F)cc2)c(=O)c(-c2cccc(Cl)c2)c1` yielded a melting point of 147 to 151 °C.
Next, `CN(C)C(=O)Oc1c(N2CCCC2)c(=O)n(-c2ccccc2)c2ncccc12`: 218 to 220 °C.
With `Cc1ccc(Br)cc1Cn1c(C(F)F)nn(C)c1=O` the figure was 108 °C; with `Cc1cc2c(s1)CNCC2O` (stereo unspecified), 120 °C; with `CC(C)CC(=O)Nc1ccc2oc3c(c2c1)CCCCCC3`, 154 to 155 °C.
Next, `NC(Cc1ccccc1)C(O)C(F)(F)F` (stereo unspecified): 110 to 111 °C.
Turning to `COC(=O)C(CC(C)C)NCC(=O)Nc1cccc2c1C(=O)c1c(NC(=O)CNC(CC(C)C)C(=O)OC)cccc1C2=O` (stereo unspecified), the melting point lay within 238 to 239 °C.
With `CCn1c(C)nc2cc(S(C)(=O)=O)c(Cl)c(N)c21` the figure was 179 to 186 °C; with `CCOC(=O)C1C(OC)C(=O)N1c1ccc(OC)cc1` (stereo unspecified), 116 to 118 °C; with `COC(=O)c1nc(NC(C)=O)ccc1Oc1nc(OC)cc(OC)n1`, 80 to 85 °C.
Next, `CCOC(=O)C(C)(C)c1ccc(CCNC(=O)c2ccc(Cl)cc2)cc1`: 108 to 109 °C; `CC(=NOCCCOc1ccccc1)C(=O)O`: 86 to 88 °C; `CC(=O)C(=O)N1C(C(=O)OCc2ccccc2)CC2CCCCC21` (stereo unspecified): 50 to 55 °C.
With `CCOc1cn(C)c2nc3cc(F)c(F)cc3cc2c1=O` the figure was above 270 °C; with `O=S(=O)(Nc1ccc2c(OCc3csc(-c4ccc(F)cc4F)n3)cccc2c1)C(F)(F)F`, 191 to 192 °C.
For `CCOC(=S)c1cnc(C)nc1NC(=O)Nc1ccccc1Cl`, the melting point was 172 to 173 °C.
For `CCCNC(=O)CCn1c(C)nc2c(N)nc3ccccc3c21`, the melting point lay within 188 to 189 °C.
Next, `CCOC(=O)c1cnn(-c2cc(Cl)cc(Cl)c2)c1C(N)=O`: 164 to 166 °C; `Cc1ccc(C)c(SCCC(=O)O)c1`: 100 to 102 °C.
With `Cc1cc(I)ccc1NC1=CC2=NCN(C)C2=CC1(F)C(=O)NN` (stereo unspecified) the figure was 232 to 234 °C; with `Cc1nc(=O)[nH]c2cc(Cl)c(NC(N)=O)cc12`, above 310 °C; with `CC(OC(=O)Nc1ccc(-c2ncn(-c3ccc(OC(F)(F)F)cc3)n2)cc1)C1CC1` (stereo unspecified), 123 to 124 °C.
In turn, `Cc1nc(N2CCN(Cc3ccc(OC(F)(F)F)cc3)C2=O)sc1C(=O)NCc1cccnc1` had a melting point of 165 to 166 °C.
With `CCC(O)CN1CCC(C)C(c2ccc(Cl)cc2)=N1` (stereo unspecified) the figure was 90.5 to 91.5 °C; with `OCCNc1c2c(nc3cn[nH]c13)CCCC2`, 205 to 210 °C; with `Nc1ncnc2c1c(Br)cn2COC(O)CCO` (stereo unspecified), 170 to 172 °C.
With `CCC(CC)c1nn(-c2ccc(C(F)(F)F)cn2)cc1CCCOc1ccccc1CC(=O)O` the figure was 65 to 66 °C; with `N#Cc1cnc2ccc(-n3cccc3C=O)cc2c1Nc1cccc(Br)c1`, 94 to 95 °C.
Next, `CC(C)C(=O)N1C(=O)C2C=CC1C2` (stereo unspecified): 41 to 42 °C.
